Measured values published in patent US6090787A, “Antithrombotic agents” (Eli Lilly and Company, priority 1999, dated 2000).

Assays:
[1] = target: T1, Bovine trypsin (Bos taurus, UniProt P00760); assay: Serine protease selectivity, Kass, trypsin chromogenic assay; assay type: biochemical; conditions: apparent association constant
T1 construct: purchased Worthington Biochemicals, Freehold, N.J
T1 sequence (P00760 24-246): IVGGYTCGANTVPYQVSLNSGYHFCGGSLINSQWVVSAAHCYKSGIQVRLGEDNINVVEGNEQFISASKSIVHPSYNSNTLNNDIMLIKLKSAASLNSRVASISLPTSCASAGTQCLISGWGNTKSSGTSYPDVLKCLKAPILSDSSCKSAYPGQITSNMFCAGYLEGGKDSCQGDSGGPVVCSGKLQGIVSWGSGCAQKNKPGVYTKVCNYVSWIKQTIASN
Method: (§1) By substantially following the procedures described above for human thrombin, and using other human blood coagulation system serine proteases and proteases of the fibrinolytic system with the appropriate chromogenic substrates, identified below, selectivity of the compounds of the present invention with respect to the coagulation factor serine proteases and with respect to the fibrinolytic system serine proteases are evaluated as well as their substantial lack of interference with serine proteases of the fibrinolytic system. Thrombin inhibitors preferably should spare fibrinolysis induced by urokinase, tissue plasminogen activator (t-PA) and streptokinase. This would be important to the therapeutic use of such agents as an adjunct to streptokinase, t-PA or urokinase thrombolytic therapy and to the use of such agents as an endogenous fibrinolysis-sparing (with respect to t-PA and urokinase) antithrombotic agent. In addition to the lack of interference with the amidase activity of the fibrinolytic proteases, such fibrinolytic system sparing can be studied by the use of human plasma clots and their lysis by the respective fibrinolytic plasminogen activators.
(§2) Human factors X, Xa, IXa, XIa, and XIIa are purchased from Enzyme Research Laboratories, South Bend, Ind.; human urokinase from Leo Pharmaceuticals, Denmark; and recombinant activated Protein C (aPC) is prepared at Eli Lilly and Co. substantially according to U.S. Pat. No. 4,981,952 incorporated by reference herein in its entirety. Chromogenic substrates: N--Benzoyl--Ile--Glu--Gly--Arg--p--nitroanilide (for factor Xa); N--Cbz--D--Arg--Gly--Arg--p--nitroanilide (for factor IXa assay as the factor Xa substrate); Pyroglutamyl--Pro--Arg--p--nitroanilide (for Factor XIa and for aPC); H--D--Pro--Phe--Arg--p--nitroanilide (for factor XIIa); and Pyroglutamyl--Gly--Arg--p--nitroanilide (for urokinase); are purchased from KabiVitrum, Stockholm, Sweden, or from Midwest Biotech, Fishers, Indiana. Bovine trypsin is purchased from Worthington Biochemicals, Freehold, N.J., and human plasma kallikrein from Kabi Vitrum, Stockholm, Sweden. Chromogenic substrate H--D--Pro--Phe--Arg--p--nitroanilide for plasma kallikrein is purchased from Kabi Vitrum, Stockholm, Sweden. N--Benzoyl--Phe--Val--Arg--p--nitroanilide, the substrate for human thrombin and for trypsin, is synthesized according to procedures described above for the compounds of the present invention, using known methods of peptide coupling from commercially available reactants or purchased from Midwest Biotech, Fishers, Ind.

[2] = test system: human plasma; assay: Human plasma anticoagulation, activated partial thromboplastin time (APTT); conditions: concentration required to double the APTT, linear extrapolation
Method: (§3) Dog plasma and rat plasma is obtained from conscious mixed-breed hounds (either sex, Hazelton-LRE, Kalamazoo, Mich., U.S.A.) or from anesthetized male Sprague-Dawley rats (Harlan Sprague-Dawley, Inc., Indianapolis, Ind., U.S.A.) by venipuncture into 3.8 percent citrate. Fibrinogen is prepared from in-date ACD human blood as the fraction I-2 according to previous procedures and specifications. Smith, Biochem. J., 185, 1-11 (1980); and Smith, et al., Biochemistry, 11, 2958-2967 (1972). Human fibrinogen is also purchased as 98 percent pure/plasmin free from American Diagnostica, Greenwich, Conn. Coagulation reagents ACTIN, Thromboplastin, and Human plasma are from Baxter Healthcare Corp., Dade Division, Miami, Fla. Bovine thrombin from Parke-Davis ([…], Mich.) is used for coagulation assays in plasma.
(§4) Coagulation assay procedures are as previously described. Smith, et al., Thrombosis Research, 50, 163-174 (1988). A CoAScreener coagulation instrument (American LABor, Inc.) is used for all coagulation assay measurements. The prothrombin time (PT) is measured by adding 0.05 mL saline and 0.05 mL Thromboplastin-C reagent to 0.05 mL test plasma. The activated partial thromboplastin time (APTT) is measured by incubation of 0.05 mL test plasma with 0.05 mL Actin reagent for 120 seconds followed by 0.05 mL CaCl2 (0.02 M). The thrombin time (TT) is measured by adding 0.05 mL saline and 0.05 mL thrombin (10 NIH units/mL) to 0.05 mL test plasma. The compounds of formula I are added to human or animal plasma over a wide range of concentrations to determine prolongation effects on the APTT, PT, and TT assays. Linear extrapolations are performed to estimate the concentrations required to double the clotting time for each assay.

[3] = target: T2, human thrombin (Homo sapiens, UniProt P00734); assay: Inhibition of amidase activity of thrombin (Kass), chromogenic substrate; assay type: biochemical; conditions: apparent association constant, mean over a range of concentrations
T2 construct: purified human thrombin, Enzyme Research Laboratories; purchased Enzyme Research Laboratories, South Bend, Indiana
Method: The assay is carried out by mixing 50 μL buffer (0.03 M Tris, 0.15 M NaCl, pH 7.4) with 25 μL of bovine thrombin or human thrombin solution (0.21 mg/mL of thrombostat bovine thrombin, Parke-Davis, or purified human thrombin, Enzyme Research Laboratories, South Bend, Indiana, at about 8 NIH units/mL, in the same buffer) and 25 μL of test compound in a solvent (in 50% aqueous methanol, v:v). The 150 μL of an aqueous solution of the chromogenic substrate (at 0.25 mg/mL) are added and the rates of hydrolysis of the substrate are measured by monitoring the reactions at 405 nm for the release of p-nitroaniline. Standard curves are constructed by plotting free thrombin concentration against hydrolysis rate. The hydrolysis rates observed with test compounds are then converted to "free thrombin" values in the respective assays by use of the standard curves. The bound thrombin (bound to test compound) is calculated by subtracting the amount of free thrombin observed in each assay from the known initial amount of thrombin used in the assay. The amount of free inhibitor in each assay is calculated by subtracting the number of moles of bound thrombin from the number of moles of added inhibitor (test compound).
The Kass value is the hypothetical equilibrium constant for the reaction between thrombin and the test compound (I). [formula]
Kass is calculated for a range of concentrations of test compounds and the mean value is reported in units of liter per mole.

[4] = target: T3, Human plasmin (Homo sapiens, UniProt P00747); assay: Fibrinolytic protease selectivity, Kass, plasmin chromogenic assay; assay type: biochemical; conditions: apparent association constant
T3 construct: Human plasmin is purchased from Boehringer Mannheim; purchased Boehringer Mannheim, Indianapolis, Indiana
T3 sequence (P00747 581-810 limits assumed): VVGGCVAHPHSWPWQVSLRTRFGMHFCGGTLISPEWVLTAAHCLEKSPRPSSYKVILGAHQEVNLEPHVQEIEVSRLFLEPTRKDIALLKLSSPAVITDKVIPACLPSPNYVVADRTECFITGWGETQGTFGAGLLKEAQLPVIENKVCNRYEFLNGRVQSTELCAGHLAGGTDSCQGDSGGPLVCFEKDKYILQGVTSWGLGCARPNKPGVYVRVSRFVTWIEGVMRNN
T3 sequence (P00747 97-580 partner limits assumed): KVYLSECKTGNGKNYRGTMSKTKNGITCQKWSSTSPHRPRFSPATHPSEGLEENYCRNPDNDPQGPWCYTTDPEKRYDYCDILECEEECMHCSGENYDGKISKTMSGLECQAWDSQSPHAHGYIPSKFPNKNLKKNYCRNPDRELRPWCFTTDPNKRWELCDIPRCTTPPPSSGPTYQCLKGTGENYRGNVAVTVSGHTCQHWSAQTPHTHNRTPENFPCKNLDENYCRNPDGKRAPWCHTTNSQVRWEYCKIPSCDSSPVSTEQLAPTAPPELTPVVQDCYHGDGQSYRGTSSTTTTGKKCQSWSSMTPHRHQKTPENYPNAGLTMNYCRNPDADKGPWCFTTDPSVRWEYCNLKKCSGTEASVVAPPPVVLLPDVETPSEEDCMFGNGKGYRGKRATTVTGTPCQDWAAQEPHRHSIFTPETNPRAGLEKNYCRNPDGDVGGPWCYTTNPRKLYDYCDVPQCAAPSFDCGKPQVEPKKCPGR
Method: as §1
(§5) Human plasmin is purchased from Boehringer Mannheim, Indianapolis, Indiana; nt-PA is purchased as single chain activity reference from American Diagnostica, Greenwich, Conn.; modified-t-PA6 (mt-PA6) is prepared at Eli Lilly and Company by procedure known in the art (See, Burck, et al., J. Biol. Chem., 265, […] (1990). Plasmin chromogenic substrate H--D--Val--Leu--Lys--p--nitroanilide and tissue plasminogen activator (t-PA) substrate H--D--Ile--Pro--Arg--p--nitroanilide are purchased from Kabi Vitrum, Stockholm, Sweden.

[5] = target: T4, factor Xa (Homo sapiens, UniProt P00742); assay: Serine protease selectivity, Kass, factor Xa chromogenic assay; assay type: biochemical; conditions: apparent association constant
T4 construct: Human factors X, Xa, IXa, XIa, and XIIa are purchased from Enzyme Research Laboratories; purchased Enzyme Research Laboratories, South Bend, Ind
T4 sequence (P00742 235-488 limits assumed): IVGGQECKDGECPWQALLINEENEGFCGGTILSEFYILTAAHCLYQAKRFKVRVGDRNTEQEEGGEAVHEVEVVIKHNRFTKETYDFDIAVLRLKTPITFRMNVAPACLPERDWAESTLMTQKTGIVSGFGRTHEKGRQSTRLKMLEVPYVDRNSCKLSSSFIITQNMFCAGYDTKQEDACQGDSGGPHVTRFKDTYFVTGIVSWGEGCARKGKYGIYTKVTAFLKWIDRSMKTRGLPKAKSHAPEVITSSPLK
T4 sequence (P00742 41-179 partner limits assumed): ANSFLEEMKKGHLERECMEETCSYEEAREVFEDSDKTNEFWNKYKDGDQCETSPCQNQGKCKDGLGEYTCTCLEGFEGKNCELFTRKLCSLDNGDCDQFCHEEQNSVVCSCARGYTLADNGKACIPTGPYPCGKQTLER
Method: as §1, §2

[6] = test system: human plasma; assay: Human plasma anticoagulation, prothrombin time (PT); conditions: concentration required to double the PT, linear extrapolation
Method: as §3, §4

[7] = test system: human plasma; assay: Human plasma anticoagulation, thrombin time (TT); conditions: concentration required to double the thrombin time, linear extrapolation
Method: as §3, §4

[8] = target: T5, tissue plasminogen activator (t-PA) (Homo sapiens, UniProt P00750); assay: Fibrinolytic protease selectivity, Kass, t-PA chromogenic assay; assay type: biochemical; conditions: apparent association constant
T5 construct: purchased American Diagnostica, Greenwich, Conn
T5 sequence (P00750 36-562): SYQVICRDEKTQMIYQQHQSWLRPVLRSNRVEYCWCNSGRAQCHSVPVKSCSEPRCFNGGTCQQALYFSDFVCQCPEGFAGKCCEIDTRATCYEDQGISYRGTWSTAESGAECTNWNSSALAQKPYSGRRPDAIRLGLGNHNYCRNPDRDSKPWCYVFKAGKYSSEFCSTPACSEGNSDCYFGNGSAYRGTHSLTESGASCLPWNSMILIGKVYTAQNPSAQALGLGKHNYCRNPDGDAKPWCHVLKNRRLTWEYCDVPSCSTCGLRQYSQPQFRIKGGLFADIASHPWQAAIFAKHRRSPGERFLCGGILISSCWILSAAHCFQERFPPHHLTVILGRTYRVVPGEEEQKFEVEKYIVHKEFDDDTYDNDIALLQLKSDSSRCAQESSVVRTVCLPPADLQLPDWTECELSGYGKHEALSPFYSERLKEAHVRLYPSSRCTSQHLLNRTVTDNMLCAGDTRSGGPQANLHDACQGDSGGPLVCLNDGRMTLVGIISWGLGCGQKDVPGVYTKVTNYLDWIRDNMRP
Method: as §1, §5

## Cl.Cl.N=C(N)NCCC[C@@H](C=O)NC(=O)CN(C(=O)[C@H]1CCCCN1)c1ccccc1 [Example 11, D--hPro--N(Ph)Gly--ArgH.2HCl]
[1]
  Enzyme Kass Trypsin: 1.1 L/mol × 10^6
[2]
  Human Plasma Anticoagulation 2 × Clotting time APTT: 2,200 ng/mL
[3]
  Enzyme Kass Human Thrombin: 16 L/mol × 10^6
[4]
  Enzyme Kass Plasmin: 0.036 L/mol × 10^6
[5]
  Enzyme Kass Xa: 0.21 L/mol × 10^6
[6]
  Human Plasma Anticoagulation 2 × Clotting time PT: 3,100 ng/mL
[7]
  Human Plasma Anticoagulation 2 × Clotting time TT: 120 ng/mL
[8]
  Enzyme Kass t-PA: 0.0039 L/mol × 10^6

## CCCN(CC(=O)N[C@H](C=O)CCCNC(=N)N)C(=O)[C@H]1CCCCN1.Cl.Cl [Example 3, D-homoprolyl-N-n-propylglycyl-L-argininal dihydrochloride]
[1]
  Enzyme Kass Trypsin: 2.4 L/mol × 10^6
[2]
  Human Plasma Anticoagulation 2 × Clotting time APTT: 2,100 ng/mL
[3]
  Enzyme Kass Human Thrombin: 34 L/mol × 10^6
[4]
  Enzyme Kass Plasmin: 0.045 L/mol × 10^6
[5]
  Enzyme Kass Xa: 0.084 L/mol × 10^6
[6]
  Human Plasma Anticoagulation 2 × Clotting time PT: 2,000 ng/mL
[7]
  Human Plasma Anticoagulation 2 × Clotting time TT: 77 ng/mL
[8]
  Enzyme Kass t-PA: 0.004 L/mol × 10^6

## CC(C)N(CC(=O)NC(C=O)CCCNC(=N)N)C(=O)C1CCCCN1.Cl.Cl [Example 4, D--hPro--N(i--Pr)Gly--ArgH.2HCl]
[1]
  Enzyme Kass Trypsin: 0.5 L/mol × 10^6
[2]
  Human Plasma Anticoagulation 2 × Clotting time APTT: 12,000 ng/mL
[3]
  Enzyme Kass Human Thrombin: 9.7 L/mol × 10^6
[4]
  Enzyme Kass Plasmin: 0.031 L/mol × 10^6
[5]
  Enzyme Kass Xa: 0.074 L/mol × 10^6
[6]
  Human Plasma Anticoagulation 2 × Clotting time PT: 14,000 ng/mL
[7]
  Human Plasma Anticoagulation 2 × Clotting time TT: 230 ng/mL
[8]
  Enzyme Kass t-PA: 0.001 L/mol × 10^6
